Data from paper PMC11783601, “Analogue-Sensitive Inhibition of Histone Demethylases Uncovers Member-Specific Function in Ribosomal Protein Synthesis” (Journal of the American Chemical Society, 2025).

Legend:
endogenous 2OG enzymes = experiment: Effect of 6A/B on post-translational/post-synthetic modifications in HEK293T cells (Western blot, dot blot); format: cell-based, human
Experimental: To test the orthogonality of NOL toward wild type KDM4A, HEK293T cells, either nontransfected or transfected with KDM4A, were individually treated with DMSO, 400 μM 6A or 10 μM n-octyl IOX1, a nonspecific inhibitor of 2OG enzymes. […] To further probe for off-target effects of 6 on endogenous 2OG enzymes, HEK293T cells were cultured with DMSO or 400 μM 6A and examined for several postsynthetic modifications catalyzed by these dioxygenases. Key trimethylated lysine marks on extracted histone were analyzed by Western blot using corresponding antibodies (Figure S31). […] Similarly, no change in prolyl hydroxylation was detected when cellular extracts were subjected to the pan hydroxyproline antibody. […]
washed with TBST 3 times, 5 minutes each and incubated with methylene blue solution (Sigma 03978) for loading determination.
15. Determining the effect of 6A/B on post-translational modifications in HEK293T cells To determine the effects of 6B on 5hmC and 5mC levels, and correspondingly any proteins responsible for addition or removal of these motifs, HEK293-T cells (ATCC CRL-1573) were plated into 6-well tissue culture plates (Corning) in DMEM (Corning) supplemented with 10% FBS (Corning) and 1X Antibiotic/Antimycin (Penicillin/Streptomycin/Fungiozone) (Cytiva HyClone) in an incubator held at 37 °C with 5% CO2. At 75% confluency, cells were treated with 200µM 6B or equivalent volume of DMSO and left to incubate at 37 °C. 24 hours later, the media was aspirated, washed with 1X PBS (Corning) and uplifted via trypsinization (Gibco TrypLE™ Express Enzyme). Cells were centrifuged at 3000xg for 3 minutes, washed with 1X PBS and centrifuged again at 3000xg for 3 minutes.
To study the effect on genomic DNA, genomic DNA was extracted with Fisher GeneJET gemoic DNA Purification Kit (Fisher K0721) following manufactures protocol. 1000ng of gDNA, as measured via nanodrop, was then subject to Dot Blot experiment. Briefly, 20µL of 1000ng gDNA was added to 40µL of 2M NaOH-50mM EDTA solution for 3 minutes at room temperature. 140µL of 10mM Tris/1mM EDTA pH 8.0 (TE) buffer was added and heated at 95 °C for 10 minutes.
Aliquots were then transferred directly to ice and 200µL of 2M Ammonium Acetate was added and left on ice for 5 minutes. Meanwhile, PVDF Imoblinin P (Merck Millipore Ltd.) membrane was cut to size, activated with MeOH for 30 seconds and incubated in TE buffer for 5 minutes while shaking. The membrane was then placed on a 96-well Bio-Dot microfiltration apparatus (Bio-Rad), washed with 400µL of TE buffer and the gDNA solution was applied and vacuum filtered. 400µL of TE buffer was then used to wash the membrane post gDNA binding. The membrane was then dried at 37 °C for 30 minutes followed by blocking in 5% milk concentrate (Bio-Rad) TBST solution for 1 hour at room temperature. Primary antibody 5-mC (Abcam […]
was applied and left to rotate overnight at 4 °C. The following day, the blots were washed 3 times, 5 minutes each with TBST and secondary antibody of goat-anti Rabbit antibody (CST 7074) in 5% milk/TBST at 1-10000 dilution was added for 1 hour at room temperature while shaking. The […]
To study the effect of histone methyl motifs (H3K4me3, H3K9me3, H3K27me3, H3K36me3, H3K79me3) and hydroxyproline motif, cell pellets were lysed with RIPA buffer with EDTA (Fisher J61529) supplemented with 1X protease inhibitor tablet (Roche). […] The protein concentration was determined using Bradford assay kit (BioRad Laboratories) with BSA as a […]

MINA = target: T1, MINA (Homo sapiens, UniProt Q8IUF8); experiment: MALDI-based assay for MINA histidyl hydroxylation of peptide; format: biochemical; conditions: MALDI-TOF, peptide substrate
T1 construct: we recombinantly expressed the catalytic domains of 12 wild type dioxygenases; His-TEV (N); host or cells: E. coli BL21 (DE3)
Experimental: MALDI-based assay for C14orf169 (NO66) and MINA: To monitor the enzymatic activity of
C14orf169 and MINA recombinant proteins, previous methods were utilized.10-11 Briefly, 10 µM
each recombinant protein was incubated with 10 µM peptide substrate (NH2-
Ascorbic Acid, 100 µM Iron (II), 50mM HEPES pH 7.5, and 200 µM L-Leu NOG or equivalent
volume of water in 10 µL water. Aliquots were kept on ice for 10 minutes before addition of 200
µM 2OG or equivalent volume of water. After 30-60 minutes incubation at 37 °C, 1 µL sample and
1 µL S-DHB matrix were spotted on a MALDI plate and monitored with Bruker FlexControl in
the reflectron positive mode and analyzed on Bruker FlexAnalysis software. […]

T1 sequence (Q8IUF8 139-271 limits assumed): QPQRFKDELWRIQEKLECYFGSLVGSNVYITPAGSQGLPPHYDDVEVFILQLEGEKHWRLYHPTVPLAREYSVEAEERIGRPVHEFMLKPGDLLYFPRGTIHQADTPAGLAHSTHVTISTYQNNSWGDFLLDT

Structure (SMILES) | prolyl hydroxylation (pan hydroxyproline antibody) (endogenous 2OG enzymes; HEK293T cells, 400 μM 6A) | trimethylated K4, K9, K27, and K36 levels in histone H3 (endogenous 2OG enzymes; HEK293T cells, 400 μM 6A, Western blot) | 5mC, 5hmC, and m6A modifications on DNA and RNA (endogenous 2OG enzymes; HEK293T cells, dot blot assays) | 5mC and 5hmC marks on genomic DNA (endogenous 2OG enzymes; HEK293T cells, dot-blot assay) | dimethyllysine, trimethyllysine and hydroxyproline marks on cellular proteins (endogenous 2OG enzymes; HEK293T cellular extracts, pan antibodies, Western blot) | inhibition of MINA (MINA)
CCCCCCCCOC(=O)C(=O)NC(CC(C)C)C(=O)O [6A, L-Leu octyl-ester NOG] | no change | No change | no effect | no inhibitory effect | no inhibitory effect | 
CC(C)CC(NC(=O)C(=O)O)C(=O)O (stereo not drawn) [compound 6, N-oxalyl leucine] |  |  |  |  |  | No inhibition
